The record followed here is ChEMBL document CHEMBL1131687, “Dienyl diketones as anticancer agents: synthesis and biological evaluation of some aromatic derivatives” (1999).

In brackets after ≈: the same amount, converted by molar mass.

Common to all, as to type: functional
One test concerns HEp-2. The experiment in a line: In vitro cytotoxicity against the growth of Hep-2 cell line. Conditions: Homo sapiens, read-out: LD50 (the source's name).
A further test deals with KB 3-1. The experiment in a line: In vitro cytotoxicity against the growth of KB-cell line. The note with it: Homo sapiens, read-out: LD50 (the source's name).
Another test relates to HeLa. The experiment in a line: In vitro cytotoxicity against the growth of HeLa-cell line. Conditions: Homo sapiens, read-out: LD50 (the source's name).
Test [1] in a line: In vitro cytotoxicity against the growth of Colon-205 cancer cell line. The note with it: Homo sapiens, Cancer cell lines; read-out: LD50 (the source's name).

Turning to `CC(=O)/C=C\C=C\C(=O)c1ccccc1`, the CC50 in the test with HEp-2 was above 10 µg/mL; in the test with KB 3-1 it was 0.8 µg/mL (≈ 4 µM); in the test on HeLa, above 10 µg/mL; in test [1] it was 1 µg/mL (≈ 4.99 µM).

On to `CCCCCCC(=O)/C=C/C=C/C(=O)c1ccc(C(=O)OC)cc1`, for which the CC50 (in the test with HEp-2; with KB 3-1; in the test on HeLa; in test [1]) was above 10 µg/mL in each case.

For the compound `CCC(=O)/C=C/C=C\C(C)=O`, the CC50 (in the test on HEp-2; in the test on KB 3-1; with HeLa; in test [1]) was above 10 µg/mL each time.

With `CCC(=O)/C=C/C=C\C(=O)CC(C)C`, the CC50 (in the test on HEp-2; in the test on KB 3-1; in the test with HeLa; in test [1]) was above 10 µg/mL each time.

For the compound `CCCCCCC(=O)/C=C\C=C\C(=O)c1ccc(C(=O)OC)cc1`, the CC50 in the test with HEp-2 was above 10 µg/mL; in the test with KB 3-1, above 10 µg/mL; in the test with HeLa it was above 10 µg/mL; in test [1] it was 0.8 µg/mL (≈ 2.44 µM).

For the compound `CCC(=O)/C=C\C=C\C(=O)c1ccccc1`, the CC50 with HEp-2 is above 10 µg/mL; with KB 3-1 it was above 10 µg/mL; with HeLa, above 10 µg/mL; in test [1], 1 µg/mL (≈ 4.67 µM).
